In assay [1] the test system is 6-hydroxydopamine lesioned rats. The settings on record: treated lesioned rats compared with untreated lesioned rats. On the procedure:
6-hydroxydopamine is an agent that selectively disrupts or destroys catecholaminergic systems. Thus, stereotaxic bilateral 6-hydroxydopamine lesions into the nucleus of dopaminergic diencephalic spinal neurons (A11) are performed to effect behavior consistent, although not specific, with what would be expected in a rat model of RLS. (Ondo W. G. et al., Clinical Correlates of 6-Hydroxydopamine Injections into A11 Dopaminergic Neurons in Rats: A Possible Model for Restless Leg Syndrome, Mov. Disord., 2000, 15(1):154-8)

The subject of another assay is RLS. Particulars: treatment of RLS; cited from earlier work.

The structures appear in SMILES notation.

In the case of `C#CCN[C@@H]1CCc2ccccc21.CS(=O)(=O)O` [R(+)PAI mesylate, R(+)-N-propargyl-1-aminoindan mesylate], in assay [1], the “number of standing episodes” value is recorded as “fewer standing episodes” and the total standing time result was “less total standing time”.
Take `Clc1cccc(Cl)c1N=C1NCCN1` [Clonidine]: in the assay on RLS, the “quality of sleep, frequency of waking up, periodic leg movement during sleep” value was “no effect” and the soporiferous latency result is “reduced”.

The values above are taken from patent publication US12310929B2, “Use of rasagiline for the treatment of restless legs syndrome” (TEVA PHARMACEUTICAL INDUSTRIES, LTD., priority 2006, dated 2025).
